In US20260062430A1, “INHIBITORS OF KIF18A AND USES THEREOF” (ACCENT THERAPEUTICS, INC., priority 2022, published 2026):
Like-named read-outs stand apart in the source and are kept apart here.

What was measured:
[1] = In vivo pharmacokinetic evaluation in mouse; design: species or system female balb/c nude mice; conditions: female, balb/c nude, plasma, 3 mg/kg IV
[2] = Caco-2 permeation assay (bidirectional permeability); type: in vitro ADME; conditions: human, Caco-2, pH 7.4
Method: Samples were analyzed through LC/MS/MS for estimating the apparent permeability coefficients (Papp) of compounds across Caco-2 cell monolayers. Caco-2 cells (American Type Culture Collection) were incubated and seeded onto HTS Transwell-96 Well Permeable Supports (Corning Corporation) for 14 days using a cell medium consisting of Dulbecco's Modified Eagle's Medium (DMEM) with high glucose and L-glutamine supplemented with 10% FBS, 1× penicillin-streptomycin mixture and 1×non-essential amino acids (NEAA). Cell monolayer integrity was measured using an automated tissue resistance measuring system (World Precision Instruments). Stock solutions of compounds and control compounds in DMSO were diluted with HBSS (10 mM HEPES, pH 7.4) to reach a final concentration of 5 μM with a final concentration of DMSO<0.1%. HBSS was then removed after 30 minutes of preincubation, and 75 μL of test compound was added to the apical compartment of the Transwell insert. The basolateral compartment was filled with 235 μL of HBSS (10 mM HEPES, pH 7.4) containing 2% BSA. Rate of drug transport in the basolateral to apical direction was obtained by adding 235 μL of test compound to the receiver plate wells (basolateral compartment) and filling with 75 μL of HBSS (10 mM HEPES, pH 7.4) containing 2% BSA. Time 0 samples were prepared by transferring 25 μL of […] working solution to wells of the 96-deepwell plate containing 25 μL HBSS (10 mM HEPES and 2% BSA, pH 7.4), followed by the addition 200 μL of cold methanol containing appropriate internal standards (100 nM alprazolam, 200 nM labetalol, 200 nM caffeine and 200 nM diclofenac). After incubating at 37° C. for 2 h, 25 μL samples from donor sides (apical compartment) were transferred to a 96-well plate containing 25 μL HBSS (10 mM HEPES and 2% BSA, pH 7.4). 25 μL samples from receiver sides (basolateral compartment) were removed and transferred to a new plate containing 25 μL HBSS (10 mM HEPES, pH 7.4). 200 μL of cold methanol containing internal standards (100 nM alprazolam, 200 nM labetalol, 200 nM caffeine and 200 nM diclofenac) was added to terminate the reaction. Samples were vortexed for 5 minutes and then centrifuged at 3,220 g for 40 minutes. An aliquot of 100 μL of the supernatant is mixed with 100 μL of ultra-pure water for LC-MS/MS analysis. All incubations are performed in duplicate. Solutions were discarded from the transwell plate. 100 μL Lucifer Yellow solution ([…] in HBSS) was added to each well of transwell insert and 300 μL of HBSS to each well of receiver. After incubating at 37° C. for 30 minutes, 80 μL was aliquoted from each well of apical and basolateral sides to a solid black plate. The plate was then read with Tecan Infinite™ M 200 (Excitation/Emission wavelength […]).
All calculations were carried out using Microsoft Excel. Peak areas were determined from extracted ion chromatograms. The leakage of Lucifer Yellow, in unit of percentage (%), can be calculated using the following equation: […]
LY leakage of <1% is acceptable to indicate the well-qualified Caco-2 monolayers. The apparent permeability coefficient (Papp), in units of centimeter per second, can be calculated for Caco-2 drug transport assays using the following equation: […]
Where VA is the volume (in mL) in the receiver well (0.235 mL for Ap→Bl flux and 0.075 mL for Bl→Ap flux), Area is the surface area of the membrane (0.143 cm^2 for HTS Transwell-96 Well Permeable Supports), and time is the total transport time in seconds. The efflux ratio can be determined using the following equation: […]
Where Papp (B-A) indicates the apparent permeability coefficient in basolateral to apical direction, and Papp (A-B) indicates the apparent permeability coefficient in apical to basolateral direction.
The recovery can be determined using the following equation: […]

KIF18A = molecular target: T1, KIF18A (Homo sapiens, UniProt Q8NI77); experiment: KIF18A Biochemical Assay (ATPase, ADP-Glo)
T1 construct: A solution of KIF18A (0.4 nM, 5 μL/well; 1-367) in assay buffer
T1 sequence (Q8NI77 1-367): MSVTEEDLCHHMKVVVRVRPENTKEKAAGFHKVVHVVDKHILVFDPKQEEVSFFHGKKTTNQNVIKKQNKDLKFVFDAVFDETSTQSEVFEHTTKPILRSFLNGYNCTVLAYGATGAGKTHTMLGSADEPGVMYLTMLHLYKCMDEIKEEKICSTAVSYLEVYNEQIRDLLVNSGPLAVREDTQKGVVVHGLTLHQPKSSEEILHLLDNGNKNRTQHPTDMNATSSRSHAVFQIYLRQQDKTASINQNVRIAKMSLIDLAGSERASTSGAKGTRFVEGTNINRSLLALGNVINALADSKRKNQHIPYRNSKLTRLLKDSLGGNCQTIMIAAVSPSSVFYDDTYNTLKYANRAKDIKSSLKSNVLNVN

OVCAR-3 cells = experiment: In vitro anti-proliferative activity assay in cancer cell line OVCAR-3 (CTG); type: cell-based; conditions: 7-day assay, read-out: OVCAR-3 cellular antiproliferation assay IC50
OVCAR-3 xenografts = experiment: 28 day in vivo efficacy in OVCAR-3 xenografts; design: species or system female NOD SCID mice; conditions: 10 and 30 mg/kg QD, 28 days
Method: Experiments were performed in female NOD SCID mice (GenPharmatech Co.). Animals were allowed to acclimate for 7 days before the study. The general health of the animals were evaluated by a veterinarian, and complete health checks were performed prior to the study. General procedures for animal care and housing were in accordance with the standard, Commission on Life Sciences, National Research Council, Standard Operating Procedures (SOPs) of Pharmaron, Inc. The mice were kept in laminar flow rooms at constant temperature and humidity with 3-5 mice in each cage. Animals were housed in polycarbonate cages which had dimensions of 300×180×150 mm^3 and in an environmentally monitored, well-ventilated room maintained at a temperature of 23±3° C. and a relative humidity of 40%-70%. Fluorescent lighting provided illumination approximately 12 hours per day. […]
The OVCAR-3 (ATCC) tumor cell lines were maintained in vitro as a monolayer in RPMI 1640 medium supplemented with 20% heat inactivated FBS, at 37° C. in an atmosphere of 5% CO2 in air. The tumor cells were sub-cultured, not exceeding 4-5 passages, and cells growing in an exponential growth phase were harvested and counted for tumor inoculation. […]
The measurement of tumor size was conducted with a caliper and recorded twice per week. […]

| Structure (SMILES) | clearance [1] | efflux ratio at 2 h, 5 μM [2] | IC50 (KIF18A) | IC50 (OVCAR-3 cells; Homo sapiens, OVCAR-3, 168 h) | other results |
| --- | --- | --- | --- | --- | --- |
| Cc1cc(NC(=O)c2ccc(NS(=O)(=O)CCO)cc2N2CC[Si](C)(C)CC2)nc(N2CCC(F)(F)CC2)n1 [Example 9, N-[2-(4,4-difluoropiperidin-1-yl)-6-methylpyrimidin-4-yl]-2-(4,4-dimethyl-1,4-azasilinan-1-yl)-4-(2-hydroxyethanesulfonamido)benzamide] | 1.7 mL/min/kg | – | – | – | – |
| C[Si]1(C)CCN(c2cc(NS(=O)(=O)CCO)ccc2C(=O)Nc2ccnc(OCCC(F)(F)F)n2)CC1 [Example 10] | – | < 10 | – | – | – |
| Cc1cc(NC(=O)c2ccc(NS(=O)(=O)CCO)cc2N2CC[C@]3(C)C[C@@H]3C2)nc(C2CCC(F)(F)CC2)n1 [Example 62] | – | < 10 | < 100 nM | < 100 nM | – |
| Cc1cc(NC(=O)c2ccc(NS(=O)(=O)CCO)cc2N2CC[C@]3(C(F)(F)F)C[C@@H]3C2)nc(N2CCC(F)(F)CC2)n1 [Example 86] | – | < 10 | < 100 nM | 100 to 500 nM | – |
| Cc1cc(NC(=O)c2ccc(NS(=O)(=O)CCO)cc2N2CC[C@@]3(C)C[C@H]3C2)nc(C2CCC(F)(F)CC2)n1 [Example 63] | – | – | < 100 nM | < 100 nM | – |
| Cc1cc(NC(=O)c2c(F)cc(NS(=O)(=O)CCO)cc2N2CC[C@@]3(C)C[C@H]3C2)nc(N2CCC(F)(F)CC2)n1 (single isomer, unassigned) [Example 31b] | – | – | < 100 nM | – | – |
| Cc1cc(NC(=O)c2ccc(NS(=O)(=O)CCO)cc2N2CC[C@@]3(C(F)F)C[C@H]3C2)nc(N2CCC(F)(F)CC2)n1 (single isomer, unassigned) [Example 29b] | 3.3 mL/min/kg | – | – | – | Tumor growth (OVCAR-3 xenografts): significant reduction in tumor growth in a dose-dependent manner |
| Cc1cc(NC(=O)c2ccc(NS(=O)(=O)CCO)cc2N2CC[C@@]3(F)CC[C@H]3C2)nc(N2CCC(F)(F)CC2)n1 (single isomer, unassigned) [Example 50b] | 0.74 mL/min/kg | – | – | – | – |
| O=C(Nc1ccnc(N2CCC(F)(F)CC2)n1)c1c(F)cc(NS(=O)(=O)CCO)cc1N1CC[C@@]2(C(F)F)C[C@H]2C1 [Example 84] | – | < 10 | – | – | IC50 (OVCAR-3 cells): 100 to 500 nM |
| Cc1cc(NC(=O)c2ccc(NS(=O)(=O)N(C)CCO)cc2N2CC[Si](C)(C)CC2)nc(C2CCC(F)(F)CC2)n1 [Example 134] | – | < 10 | < 100 nM | 100 to 500 nM | – |
| Cc1cc(NC(=O)c2ccc(NS(=O)(=O)NCCO)cc2N2CC[Si](C)(C)CC2)nc(C2CCC(F)(F)CC2)n1 [Example 117] | – | < 10 | 100 to 500 nM | 100 to 500 nM | – |
| Cc1cc(NC(=O)c2ccc(NS(=O)(=O)CCO)cc2N2CC[C@@]3(C(F)(F)F)C[C@H]3C2)nc(N2CCC(F)(F)CC2)n1 [Example 85] | – | – | < 100 nM | 100 to 500 nM | – |
| Cc1cc(NC(=O)c2ccc(NS(=O)(=O)CCO)cc2N2CC[Si](C)(C)CC2)nc(C2CCC(F)(F)CC2)n1 [Example 1, N-(2-(4,4-difluorocyclohexyl)-6-methylpyrimidin-4-yl)-2-(4,4-dimethyl-1,4-azasilinan-1-yl)-4-((2-hydroxyethyl)sulfonamido)benzamide] | 3.6 mL/min/kg | – | – | – | – |
